Test system: Plasmodium berghei
Assay: Luciferase/luciferin-expressing antifolate-resistant parasites were used to infect a culture of HepG2 cells that were pre-incubated with compounds. Infected hepatocytes emit light due to the luciferase reaction. Assay results are presented as the percent inhibition of light emission compared to control. […]
Format: functional
Conditions: sporozoite; for IC90: read-out: LUCIFERASE INFECTION ASSAY - IC90

| Structure (SMILES) | IC90 [µM] | also measured |
| --- | --- | --- |
| Clc1ccccc1/C=C/c1nc(-c2ccccn2)no1 | > 11.6 | IC50 (FFLUC_HILL_SLOPE 3.15, FFLUC_R_SQUARED 0.695, PBLUC_HILL_SLOPE 0.408, PBLUC_R_SQUARED 0.784, read-out: LUCIFERASE INFECTION ASSAY - IC50): 0.446 µM |
| Cc1cc(C)c(C(=O)CSc2cc(C)c3cccc(C)c3n2)c(C)c1 | > 10 | IC50 (FFLUC_HILL_SLOPE 3.04, FFLUC_R_SQUARED 0.417, HEPG2TOX_HILL_SLOPE 2.16, HEPG2TOX_R_SQUARED 0.191, read-out: LUCIFERASE INFECTION ASSAY - IC50): > 10 µM |
| O=C(Nc1ccc(-n2cnc3ccccc32)nc1)c1ccc(S(=O)(=O)C(F)F)cc1 | > 10 | IC50 (FFLUC_HILL_SLOPE 3, FFLUC_R_SQUARED 0.28, HEPG2TOX_HILL_SLOPE 9.7, HEPG2TOX_R_SQUARED 0.823, PBLUC_HILL_SLOPE 15.6, 20.0, PBLUC_R_SQUARED 0.113, 0.608, read-out: LUCIFERASE INFECTION ASSAY - IC50): 9.13 µM |
| O=C(OCCSc1ccc([N+](=O)[O-])c2nonc12)c1cccc(C(F)(F)F)c1 | > 7.98 | IC50 (FFLUC_HILL_SLOPE 3.07, FFLUC_R_SQUARED 0.747, HEPG2TOX_HILL_SLOPE 10.3, HEPG2TOX_R_SQUARED 0.666, PBLUC_HILL_SLOPE 2.08, PBLUC_R_SQUARED 0.429, read-out: LUCIFERASE INFECTION ASSAY - IC50): 3.94 µM |
| CN(C)c1ccc(C(c2ccc(N(C)C)cc2)c2ccc(N(C)C)c(C#N)c2F)cc1 | > 7.92 | IC50 (FFLUC_HILL_SLOPE 2.97, FFLUC_R_SQUARED 0.397, HEPG2TOX_HILL_SLOPE 0.327, HEPG2TOX_R_SQUARED 0.744, PBLUC_HILL_SLOPE 0.914, PBLUC_R_SQUARED 0.465, read-out: LUCIFERASE INFECTION ASSAY - IC50): 6.07 µM |
| COc1ccc(-c2csc(NC(=O)c3ccc(Cl)c(S(=O)(=O)N4CCc5ccccc54)c3)n2)cc1OC | > 10 | IC50 (FFLUC_HILL_SLOPE 2.97, FFLUC_R_SQUARED 0.574, read-out: LUCIFERASE INFECTION ASSAY - IC50): > 10 µM |
| O=C(Nc1nc(-c2cccs2)cs1)c1cc(-c2ccccc2)nn1-c1ccccc1 | > 10 | IC50 (FFLUC_HILL_SLOPE 3.07, FFLUC_R_SQUARED 0.622, PBLUC_HILL_SLOPE 1.11, PBLUC_R_SQUARED 0.202, read-out: LUCIFERASE INFECTION ASSAY - IC50): > 10 µM |
| O=S(=O)(c1ccc(Cl)c(N=C2NN=C(c3c[nH]c4ccccc34)CS2)c1)N1CCOCC1 | > 10 | IC50 (FFLUC_HILL_SLOPE 3.06, FFLUC_R_SQUARED 0.687, HEPG2TOX_HILL_SLOPE 3.66, HEPG2TOX_R_SQUARED 0.952, PBLUC_HILL_SLOPE 1.64, PBLUC_R_SQUARED 0.734, read-out: LUCIFERASE INFECTION ASSAY - IC50): 3.83 µM |
| CC(C(=O)NCC1CCCCC1)N1CCN(c2ccc(F)cc2)CC1 (stereo not given) | > 10 | IC50 (FFLUC_HILL_SLOPE 3.15, FFLUC_R_SQUARED 0.597, read-out: LUCIFERASE INFECTION ASSAY - IC50): > 10 µM |
| CC(C)(C)c1ccc(OC(=O)Nc2ccc(Cl)c(Cl)c2)c(C(C)(C)C)c1 | > 8.37 | IC50 (FFLUC_HILL_SLOPE 3, FFLUC_R_SQUARED 0.639, PBLUC_HILL_SLOPE 0.845, PBLUC_R_SQUARED 0.14, read-out: LUCIFERASE INFECTION ASSAY - IC50): > 8.37 µM |
| N#C/C(=C\c1ccc([N+](=O)[O-])s1)C(N)=S | > 13.8 | IC50 (FFLUC_HILL_SLOPE 3.11, FFLUC_R_SQUARED 0.767, read-out: LUCIFERASE INFECTION ASSAY - IC50): > 13.8 µM |
| O=[N+]([O-])c1cc(Cl)cc(/C=N/Nc2cc(C(F)(F)F)ccc2Cl)c1O | > 10 | IC50 (FFLUC_HILL_SLOPE 3.01, FFLUC_R_SQUARED 0.379, HEPG2TOX_HILL_SLOPE 2.46, HEPG2TOX_R_SQUARED 0.824, read-out: LUCIFERASE INFECTION ASSAY - IC50): > 10 µM |
| Cc1cc2c(cc1C)CSC(c1ccccc1OC(=O)c1cccc3ccccc13)SC2 | > 10 | IC50 (FFLUC_HILL_SLOPE 3.12, FFLUC_R_SQUARED 0.597, read-out: LUCIFERASE INFECTION ASSAY - IC50): > 10 µM |
| Cc1nn(-c2ccccc2)c2c1C(c1cccnc1)C(c1nc3ccccc3s1)C(c1ccccc1)=N2 (stereo not given) | > 10 | IC50 (FFLUC_HILL_SLOPE 3.11, FFLUC_R_SQUARED 0.548, read-out: LUCIFERASE INFECTION ASSAY - IC50): > 10 µM |
| Cc1cc(C(=O)C(C)Sc2ncnc3sc(-c4ccccc4)cc23)c(C)n1-c1ccc(OC(F)F)cc1 (stereo not given) | > 10 | IC50 (FFLUC_HILL_SLOPE 3.01, FFLUC_R_SQUARED 0.199, HEPG2TOX_HILL_SLOPE 3.15, HEPG2TOX_R_SQUARED 0.925, PBLUC_HILL_SLOPE 3.1, PBLUC_R_SQUARED 0.165, read-out: LUCIFERASE INFECTION ASSAY - IC50): 7.04 µM |
| CCOC(=O)c1cc(NC(=O)c2ccc(Cl)c(S(=O)(=O)N(Cc3ccccc3)c3ccccc3OC)c2)cc(C(=O)OCC)c1 | > 10 | IC50 (FFLUC_HILL_SLOPE 3.02, FFLUC_R_SQUARED 0.375, read-out: LUCIFERASE INFECTION ASSAY - IC50): > 10 µM |
| O=c1[nH]nc(Sc2ncc([N+](=O)[O-])s2)n1Cc1ccccc1 | > 9.84 | IC50 (FFLUC_HILL_SLOPE 3.03, FFLUC_R_SQUARED 0.344, HEPG2TOX_HILL_SLOPE 12.4, HEPG2TOX_R_SQUARED 0.571, PBLUC_HILL_SLOPE 13, PBLUC_R_SQUARED 0.0851, read-out: LUCIFERASE INFECTION ASSAY - IC50): 8.7 µM |
| Cc1ccc2nc(NC(=O)c3cccc(F)c3)c(C(=O)NCC(C)C)n2c1 | 3.14 | IC50 (FFLUC_HILL_SLOPE 3.07, FFLUC_R_SQUARED 0.833, HEPG2TOX_HILL_SLOPE 1.43, HEPG2TOX_R_SQUARED 0.94, PBLUC_HILL_SLOPE 3.56, PBLUC_R_SQUARED 0.485, read-out: LUCIFERASE INFECTION ASSAY - IC50): 1.69 µM |
| c1ccc(-c2cc3c(Oc4cccc5ccccc45)ncnc3s2)cc1 | > 10 | IC50 (FFLUC_HILL_SLOPE 2.93, FFLUC_R_SQUARED 0.065, PBLUC_HILL_SLOPE 1.19, PBLUC_R_SQUARED 0.417, read-out: LUCIFERASE INFECTION ASSAY - IC50): 2.85 µM |
| NNc1nc(C(F)(F)F)nc2c1cnn2Cc1ccccc1 | > 10 | IC50 (FFLUC_HILL_SLOPE 3.09, FFLUC_R_SQUARED 0.0505, read-out: LUCIFERASE INFECTION ASSAY - IC50): > 10 µM |
| CC(=O)c1ccc(NC(=O)N2[C@@H]3CC[C@@H](C3)[C@H]2c2nc3cccc(OCc4ccccc4)c3[nH]2)cc1 | > 10 | IC50 (FFLUC_HILL_SLOPE 3.04, FFLUC_R_SQUARED 0.885, read-out: LUCIFERASE INFECTION ASSAY - IC50): > 10 µM |
| FC(F)(F)c1nnc2ccc(NC(c3ccccc3)c3cc4ccccc4o3)nn12 (stereo not given) | 4.2 | IC50 (FFLUC_HILL_SLOPE 3.11, FFLUC_R_SQUARED 0.599, PBLUC_HILL_SLOPE 15.6, PBLUC_R_SQUARED 0.326, read-out: LUCIFERASE INFECTION ASSAY - IC50): 3.65 µM |
| Cc1ccc(N2C(=O)c3ccccc3C(C=NNc3ccc(S(=O)(=O)N4CCCC4)cc3[N+](=O)[O-])C2=O)cc1 (stereo not given) | > 10 | IC50 (FFLUC_HILL_SLOPE 3.06, FFLUC_R_SQUARED 0.613, HEPG2TOX_HILL_SLOPE 13, HEPG2TOX_R_SQUARED 0.977, read-out: LUCIFERASE INFECTION ASSAY - IC50): > 10 µM |
| CC(C)c1cc(N(c2ccc(Br)cc2)S(=O)(=O)c2ccc(Cl)cc2)cc(C(C)C)c1O | > 10 | IC50 (FFLUC_HILL_SLOPE 3.1, FFLUC_R_SQUARED 0.697, PBLUC_HILL_SLOPE 9.64, PBLUC_R_SQUARED 0.214, read-out: LUCIFERASE INFECTION ASSAY - IC50): 8.66 µM |
| CC(=O)Nc1ccc(Sc2ccnc3cc(Cl)ccc23)cc1 | 3.98 | IC50 (FFLUC_HILL_SLOPE 2.92, FFLUC_R_SQUARED 0.4, PBLUC_HILL_SLOPE 11.7, PBLUC_R_SQUARED 0.574, read-out: LUCIFERASE INFECTION ASSAY - IC50): 3.29 µM |
| CCc1cccc2c(C(=O)COC(=O)C3CCN(S(=O)(=O)c4ccc(Cl)c(C(F)(F)F)c4)CC3)c[nH]c12 | > 10 | IC50 (FFLUC_HILL_SLOPE 3.04, FFLUC_R_SQUARED 0.433, read-out: LUCIFERASE INFECTION ASSAY - IC50): > 10 µM |
| CN(C)c1c(/C=C2\C(=O)Nc3ccccc32)cc(/C=C2/C(=O)Nc3ccccc32)c(N(C)C)c1C#N | 4.13 | IC50 (FFLUC_HILL_SLOPE 3.06, FFLUC_R_SQUARED 0.454, HEPG2TOX_HILL_SLOPE 1.28, HEPG2TOX_R_SQUARED 0.858, PBLUC_HILL_SLOPE 2.4, PBLUC_R_SQUARED 0.768, read-out: LUCIFERASE INFECTION ASSAY - IC50): 1.65 µM |
| Cc1ccc(-n2c(SCC(=O)N3c4ccc(S(N)(=O)=O)cc4CC3C)nc3ccccc32)cc1 (stereo not given) | > 10 | IC50 (FFLUC_HILL_SLOPE 2.97, FFLUC_R_SQUARED 0.377, PBLUC_HILL_SLOPE 1.55, PBLUC_R_SQUARED 0.53, read-out: LUCIFERASE INFECTION ASSAY - IC50): 5.31 µM |
| Cc1cccc(C)c1-n1c(=C(C#N)C#N)s/c(=C/c2ccc(Cl)c([N+](=O)[O-])c2)c1=O | 9.8 | IC50 (FFLUC_HILL_SLOPE 2.98, FFLUC_R_SQUARED 0.465, HEPG2TOX_HILL_SLOPE 7.11, HEPG2TOX_R_SQUARED 0.701, PBLUC_HILL_SLOPE 34, PBLUC_R_SQUARED 0.394, read-out: LUCIFERASE INFECTION ASSAY - IC50): 9.19 µM |
| COc1ccc([N+](=O)[O-])cc1C(=O)Nc1nc2c(s1)CCCCC2 | 0.411 | IC50 (FFLUC_HILL_SLOPE 3.14, FFLUC_R_SQUARED 0.813, PBLUC_HILL_SLOPE 0.763, PBLUC_R_SQUARED 0.879, read-out: LUCIFERASE INFECTION ASSAY - IC50): 0.0231 µM |

— ChEMBL document CHEMBL4483862, “Open-source discovery of chemical leads for next-generation chemoprotective antimalarials” (2018)
